From PMC4504079, “Andrographolide sodium bisulphite-induced inactivation of urease: inhibitory potency, kinetics and mechanism” (BMC Complementary and Alternative Medicine, 2015) come the findings set out here.

Experiment [1] addresses T1, Helicobacter pylori urease (HPU) (Helicobacter pylori, UniProt P69996).
T1 construct: gene ureB; crude urease solution from H. pylori ATCC 43504
Nature of the experiment: urease activity assay on desalted crude bacterial extract (modified Berthelot). In kind it is biochemical.

The target in experiment [2] is jack bean urease (JBU) (Canavalia ensiformis, UniProt P07374). Nature of the experiment: urease activity assay (modified Berthelot ammonia determination), slow-binding progress curves. In kind it is biochemical.
Chain of jack bean urease (JBU) (P07374 whole entry): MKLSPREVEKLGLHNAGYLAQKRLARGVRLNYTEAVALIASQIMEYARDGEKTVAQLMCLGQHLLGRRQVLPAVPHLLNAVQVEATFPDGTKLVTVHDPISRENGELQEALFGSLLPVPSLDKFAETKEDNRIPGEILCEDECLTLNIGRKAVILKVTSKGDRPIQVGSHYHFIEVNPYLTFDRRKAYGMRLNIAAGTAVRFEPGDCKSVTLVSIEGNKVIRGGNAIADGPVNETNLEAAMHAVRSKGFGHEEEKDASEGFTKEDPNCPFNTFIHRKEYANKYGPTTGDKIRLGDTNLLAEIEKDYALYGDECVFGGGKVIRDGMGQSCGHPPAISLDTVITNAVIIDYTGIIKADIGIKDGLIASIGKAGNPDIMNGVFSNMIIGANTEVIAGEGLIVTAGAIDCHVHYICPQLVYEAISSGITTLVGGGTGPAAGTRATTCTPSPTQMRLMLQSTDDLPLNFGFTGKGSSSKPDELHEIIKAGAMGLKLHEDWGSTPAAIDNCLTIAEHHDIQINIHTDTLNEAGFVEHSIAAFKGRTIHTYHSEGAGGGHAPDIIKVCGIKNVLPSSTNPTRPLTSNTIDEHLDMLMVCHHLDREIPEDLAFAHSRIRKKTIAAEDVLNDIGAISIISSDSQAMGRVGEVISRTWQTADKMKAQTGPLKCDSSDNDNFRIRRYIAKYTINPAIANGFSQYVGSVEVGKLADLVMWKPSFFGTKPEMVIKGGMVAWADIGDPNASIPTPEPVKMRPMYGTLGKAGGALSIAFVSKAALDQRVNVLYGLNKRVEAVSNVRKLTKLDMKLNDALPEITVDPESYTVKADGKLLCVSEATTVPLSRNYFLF

As usually defined, the IC50 is the concentration that gives 50% inhibition.

T1 sequence (P69996 whole entry): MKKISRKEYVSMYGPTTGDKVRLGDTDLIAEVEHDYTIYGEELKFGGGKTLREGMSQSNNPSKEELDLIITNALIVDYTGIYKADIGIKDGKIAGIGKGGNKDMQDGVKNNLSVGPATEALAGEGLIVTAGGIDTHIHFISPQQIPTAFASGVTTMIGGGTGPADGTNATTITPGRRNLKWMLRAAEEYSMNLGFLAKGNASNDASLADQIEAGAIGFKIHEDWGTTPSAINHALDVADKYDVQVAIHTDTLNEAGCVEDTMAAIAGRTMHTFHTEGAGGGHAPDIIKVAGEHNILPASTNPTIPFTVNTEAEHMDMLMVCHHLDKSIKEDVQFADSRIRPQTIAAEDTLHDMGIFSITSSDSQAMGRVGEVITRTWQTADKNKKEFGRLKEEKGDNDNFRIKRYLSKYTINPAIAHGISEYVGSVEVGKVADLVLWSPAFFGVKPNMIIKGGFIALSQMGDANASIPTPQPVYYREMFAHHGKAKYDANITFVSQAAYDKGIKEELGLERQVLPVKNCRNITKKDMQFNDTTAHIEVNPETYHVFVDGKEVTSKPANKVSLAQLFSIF

Consider `C=C1CC[C@@H]2[C@](C)(CO)[C@H](O)CC[C@@]2(C)[C@@H]1CC(C1=CCOC1=O)S(=O)(=O)O` (some centres unmarked) [ASB, Andrographolide sodium bisulphite], for which the results for the IC50 in experiment [1] and in experiment [2] were 3.17 ± 0.34 mM and 3.28 ± 0.13 mM, respectively.
